Reference: patent publication US10508085B2, “Compounds and methods for IDO and TDO modulation, and indications therefor” (Plexxikon Inc., priority 2016, dated 2019)
Where two headings read alike, the source gives them in different places.

Assays:
[1] = molecular target: T1, Human Indoleamine 2,3-dioxygenase (IDO) (Homo sapiens, UniProt P14902); assay: Human IDO enzymatic assay (kynurenine level); type: biochemical
T1 construct: His tag (N); made in house; host or cells: E. coli
Method in brief: (§1)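 Compound is mixed with His-tagged enzyme from E. coli in pH 6.5 phosphate buffer containing ascorbate, methylene blue and catalase, at room temperature. IDO uses 6 nM enzyme and 10 μM Trp for 20 min. TDO uses 1 nM enzyme and 350 μM Trp for 70 min. TCA stops the reaction, and IC50 is derived from kynurenine levels.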

[2] = molecular target: T2, Human Tryptophan 2,3-dioxygenase (TDO) (Homo sapiens, UniProt P48775); assay: Human TDO enzymatic assay (kynurenine level); type: biochemical
T2 construct: His tag (N); made in house; host or cells: E. coli
Method in brief: as §1

[3] = molecular target: T3, human TDO (TDO-expressing HEK293 cells) (Homo sapiens, UniProt P48775); assay: Cell based kynurenine assay, TDO-expressing HEK293 cell clones
T3 construct: expressed in transfected cells
Method in brief: (§2)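 HEK293 clones stably expressing human IDO1 or human TDO (CMV promoter), 2.5×10^4 cells/well, given serial compound dilutions for 24 h. Kynurenine measured in supernatant; inhibition relative to cell/0.2% DMSO and media-only controls. IC50 by nonlinear regression.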

[4] = molecular target: T4, human IDO (IDO1-expressing HEK293 cells) (Homo sapiens, UniProt P14902); assay: Cell based kynurenine assay, IDO1-expressing HEK293 cell clones
T4 construct: expressed in transfected cells
Method in brief: as §2

[5] = 6 nM IDO, 10 μM L-Trp, geometric mean, read-out: IDO1 GMean: IC50 (μM) (Biochemical Assay)
[6] = 1 nM TDO, 350 μM L-Trp, geometric mean, read-out: TDO GMean: IC50 (μM) (Biochemical Assay)
[7] = TDO-expressing HEK293 cells, 24 hours incubation, geometric mean, read-out: HEK293 TDO Kynurenine GMean IC50 (μM) (Cellular Assay)
[8] = IDO1-expressing HEK293 cells, 24 hours incubation, geometric mean, read-out: HEK293 IDO1 Kynurenine GMean IC50 (μM) (Cellular Assay)
[9] = TDO-expressing HEK293 cells, 24 hours, geometric mean, read-out: HEK293 TDO Kynurenine GMean IC50 (μM) (Cellular Assay)
[10] = IDO1-expressing HEK293 cells, 24 hours, geometric mean, read-out: HEK293 IDO1 Kynurenine GMean IC50 (μM) (Cellular Assay)

T3 sequence (P48775 whole entry): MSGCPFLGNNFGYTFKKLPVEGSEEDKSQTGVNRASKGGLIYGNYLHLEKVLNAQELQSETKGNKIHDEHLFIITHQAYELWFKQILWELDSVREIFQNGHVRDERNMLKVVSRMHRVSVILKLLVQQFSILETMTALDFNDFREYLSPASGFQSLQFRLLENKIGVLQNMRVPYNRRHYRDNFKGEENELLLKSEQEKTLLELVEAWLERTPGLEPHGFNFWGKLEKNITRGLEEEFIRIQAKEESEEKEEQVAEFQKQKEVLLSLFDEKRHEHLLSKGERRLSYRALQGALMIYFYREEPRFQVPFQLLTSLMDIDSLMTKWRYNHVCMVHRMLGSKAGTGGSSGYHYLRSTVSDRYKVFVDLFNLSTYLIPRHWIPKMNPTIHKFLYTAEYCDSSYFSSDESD
T2 sequence (P48775 whole entry): as above
T4 sequence (P14902 whole entry): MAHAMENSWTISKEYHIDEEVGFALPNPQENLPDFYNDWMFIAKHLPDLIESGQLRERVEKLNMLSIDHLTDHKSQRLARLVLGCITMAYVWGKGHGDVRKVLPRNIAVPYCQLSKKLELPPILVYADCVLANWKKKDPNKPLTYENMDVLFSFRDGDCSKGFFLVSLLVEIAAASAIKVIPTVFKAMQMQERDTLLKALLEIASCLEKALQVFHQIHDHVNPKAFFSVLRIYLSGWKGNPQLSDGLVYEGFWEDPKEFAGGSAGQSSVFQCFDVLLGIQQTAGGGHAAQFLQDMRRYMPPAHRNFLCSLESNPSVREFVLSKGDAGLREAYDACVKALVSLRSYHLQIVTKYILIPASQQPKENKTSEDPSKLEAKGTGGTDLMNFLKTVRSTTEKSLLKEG
T1 sequence (P14902 whole entry): as above

| Compound | IC50 [1, 5] [µM] | IC50 [2, 6] [µM] | IC50 [3, 7] [µM] | IC50 [4, 8] [µM] | IC50 [3, 9] [µM] | IC50 [4, 10] [µM] | IC50 ([1]; biochemical assay, comparative examples, 4,6 versus 5,7 indazole, read-out: IDO1) [µM] | IC50 ([2]; biochemical assay, comparative examples, 4,6 versus 5,7 indazole, read-out: TDO) [µM] | IC50 ([3]; cellular assay, HEK293, 24 hours, comparative examples, read-out: hTDO) [µM] | IC50 ([4]; cellular assay, HEK293, 24 hours, comparative examples, read-out: hIDO1) [µM] |
| --- | --- | --- | --- | --- | --- | --- | --- | --- | --- | --- |
| CS(=O)(=O)N1CCC(C2(C(O)c3c(F)c(Cl)cc4cn[nH]c34)CC2)CC1 (centres unmarked) [Compound P-0165, (5-chloro-6-fluoro-1H-indazol-7-yl)(1-(1-(methylsulfonyl)piperidin-4-yl)cyclopropyl)methanol] | 0.0001 to 10 | 0.0001 to 10 | 0.0001 to 10 | 0.0001 to 10 |  |  |  |  |  |  |
| CC(C)CC(=O)N1CCC(C(F)(F)C(O)c2c(F)c(Cl)cc3cn[nH]c23)CC1 (centres unmarked) [Compound P-0375, 1-(4-(2-(5-chloro-6-fluoro-1H-indazol-7-yl)-1,1-difluoro-2-hydroxyethyl)piperidin-1-yl)-3-methylbutan-1-one] | 0.0001 to 10 | 0.0001 to 10 | 0.0001 to 10 | 0.0001 to 10 |  |  |  |  |  |  |
| CC(C)(C)OC(=O)N1CC2CCC(C1)C2CC(O)c1cc(Cl)cc2cn[nH]c12 (centres unmarked) [Compound P-0273, tert-butyl 8-(2-(5-chloro-1H-indazol-7-yl)-2-hydroxyethyl)-3-azabicyclo[3.2.1]octane-3-carboxylate] | 0.0001 to 10 | 0.0001 to 10 | 0.0001 to 10 | 0.0001 to 10 |  |  |  |  |  |  |
| OC1(c2cc(Cl)cc3cn[nH]c23)CC2(CSC2)C1 [Compound P-0040, 6-(5-chloro-1H-indazol-7-yl)-2-thiaspiro[3.3]heptan-6-ol] | 0.0001 to 10 | 0.0001 to 10 | 0.0001 to 10 | 0.0001 to 10 |  |  |  |  |  |  |
| CC(C)(CCC#N)C(O)c1cc(Cl)cc2cn[nH]c12 (centres unmarked) [Compound P-0213, 5-(5-chloro-1H-indazol-7-yl)-5-hydroxy-4,4-dimethylpentanenitrile] | 0.0001 to 10 | 0.0001 to 10 | 0.0001 to 10 | 0.0001 to 10 |  |  |  |  |  |  |
| CC(C)(C(O)c1cc(Cl)cc2cn[nH]c12)N1CCCCC1 (centres unmarked) [Compound P-0216, 1-(5-chloro-1H-indazol-7-yl)-2-methyl-2-(piperidin-1-yl)propan-1-ol] | > 200 | 10 to 100 | > 10 | > 10 |  |  |  |  |  |  |
| CS(=O)(=O)N1C2CCC1CN(c1c(F)c(Cl)cc3cn[nH]c13)C2 [Compound P-0096, 5-chloro-6-fluoro-7-(8-(methylsulfonyl)-3,8-diazabicyclo[3.2.1]octan-3-yl)-1H-indazole] | 0.0001 to 10 | 0.0001 to 10 | 0.0001 to 10 | > 10 |  |  |  |  |  |  |
| OC(CC1CCCCC1)c1cc(Cl)cc2cn[nH]c12 (centres unmarked) [Compound P-0007, 1-(5-chloro-1H-indazol-7-yl)-2-cyclohexylethan-1-ol] | 0.0001 to 10 | 0.0001 to 10 | 0.0001 to 10 | 0.0001 to 10 |  |  |  |  |  |  |
| CC(C)(C1CCN(C(=O)Nc2cc(Cl)cc(Cl)c2)CC1)C(O)c1cc(Cl)cc2cn[nH]c12 (centres unmarked) [Compound P-0395, 4-(1-(5-chloro-1H-indazol-7-yl)-1-hydroxy-2-methylpropan-2-yl)-N-(3,5-dichlorophenyl) piperidine-1-carboxamide] | 0.0001 to 10 | 0.0001 to 10 | 0.0001 to 10 | 0.0001 to 10 |  |  |  |  |  |  |
| CC(C)(C1CCN(C(=O)Nc2ccc(F)cc2)CC1)[C@@H](O)c1cc(Cl)cc2cn[nH]c12 [Compound P-0339, (R)-4-(1-(5-chloro-1H-indazol-7-yl)-1-hydroxy-2-methylpropan-2-yl)-N-(4-fluorophenyl) piperidine-1-carboxamide] | 0.0001 to 10 | 0.0001 to 10 | 0.0001 to 10 | 0.0001 to 10 |  |  |  |  |  |  |
| Cc1ccc(Cl)c(NC(=O)N2CCC(C(C)(C)C(O)c3cc(Cl)cc4cn[nH]c34)CC2)c1 (centres unmarked) [Compound P-0406, 4-(1-(5-chloro-1H-indazol-7-yl)-1-hydroxy-2-methylpropan-2-yl)-N-(2-chloro-5-methylphenyl) piperidine-1-carboxamide] | 0.0001 to 10 | 0.0001 to 10 |  |  | 0.0001 to 10 | 0.0001 to 10 |  |  |  |  |
| CC(C)(C1CCN(C(=O)c2ccccc2Cl)CC1)C(O)c1cc(Cl)cc2cn[nH]c12 (centres unmarked) [Compound P-0368, (4-(1-(5-chloro-1H-indazol-7-yl)-1-hydroxy-2-methylpropan-2-yl)piperidin-1-yl)(2-chlorophenyl) methanone] | 0.0001 to 10 | 0.0001 to 10 | 0.0001 to 10 | 0.0001 to 10 |  |  |  |  |  |  |
| O=C(NCC(F)(F)F)N1CCC(C(F)(F)C(O)c2c(F)c(Cl)cc3cn[nH]c23)CC1 (centres unmarked) [Compound P-0378, 4-(2-(5-chloro-6-fluoro-1H-indazol-7-yl)-1,1-difluoro-2-hydroxyethyl)-N-(2,2,2-trifluoroethyl) piperidine-1-carboxamide] | 0.0001 to 10 | 0.0001 to 10 | 0.0001 to 10 | 0.0001 to 10 |  |  |  |  |  |  |
| O=C(Nc1cccc(C(F)(F)F)c1)N1CCC(C(F)(F)C(O)c2cc(Cl)cc3cn[nH]c23)CC1 (centres unmarked) [Compound P-0154, 4-(2-(5-chloro-1H-indazol-7-yl)-1,1-difluoro-2-hydroxyethyl)-N-(3-(trifluoromethyl)phenyl)piperidine-1-carboxamide] | 0.0001 to 10 | 0.0001 to 10 | 0.0001 to 10 | 0.0001 to 10 |  |  |  |  |  |  |
| CC1(C)[C@H]2CCC3(CC(O)(c4cc(Cl)cc5cn[nH]c45)C3)[C@@H]1C2 (some centres unmarked) [Compound P-0190] | 0.0001 to 10 | 0.0001 to 10 | 0.0001 to 10 | 0.0001 to 10 |  |  |  |  |  |  |
| CCC(=O)N1CCC(C(C)(C)C(O)c2cc(Cl)cc3cn[nH]c23)CC1 (centres unmarked) [Compound P-0311, 1-(4-(1-(5-chloro-1H-indazol-7-yl)-1-hydroxy-2-methylpropan-2-yl)piperidin-1-yl)propan-1-one] | 0.0001 to 10 | 0.0001 to 10 | 0.0001 to 10 | 0.0001 to 10 |  |  |  |  |  |  |
| CC1(C(O)c2cc(C(F)(F)F)cc3cn[nH]c23)CCCCC1 (centres unmarked) [Compound P-0013, (1-methylcyclohexyl)(5-(trifluoromethyl)-1H-indazol-7-yl)methanol] | 0.0001 to 10 | 0.0001 to 10 | 0.0001 to 10 | 0.0001 to 10 |  |  |  |  |  |  |
| CC1(C(O)c2c(F)c(Cl)c(F)c3cn[nH]c23)CCCCC1 (centres unmarked) [Compound P-0123, (5-chloro-4,6-difluoro-1H-indazol-7-yl)(1-methylcyclohexyl)methanol] | 0.0001 to 10 | 0.0001 to 10 | 0.0001 to 10 | 0.0001 to 10 |  |  |  |  |  |  |
| CC(C)(C1CCN(C(=O)NCC(F)(F)F)CC1)[C@H](O)c1c(F)c(Cl)cc2cn[nH]c12 [Compound P-0511, (S)-4-(1-(5-chloro-6-fluoro-1H-indazol-7-yl)-1-hydroxy-2-methylpropan-2-yl)-N-(2,2,2-trifluoroethyl) piperidine-1-carboxamide] | 0.0001 to 10 | 0.0001 to 10 |  |  | 0.0001 to 10 | 0.0001 to 10 |  |  |  |  |
| OC(c1cc(Cl)cc2cn[nH]c12)C1(Cc2cccc(F)c2)CCC1 (centres unmarked) [Compound P-0188, (5-chloro-1H-indazol-7-yl)(1-(3-fluorobenzyl)cyclobutyl)methanol] | 0.0001 to 10 | 0.0001 to 10 | > 10 | 0.0001 to 10 |  |  |  |  |  |  |
| NC(=O)N1CCC(C(F)(F)C(O)c2c(F)c(Cl)cc3cn[nH]c23)CC1 (centres unmarked) [Compound P-0379, 4-(2-(5-chloro-6-fluoro-1H-indazol-7-yl)-1,1-difluoro-2-hydroxyethyl) piperidine-1-carboxamide] | 0.0001 to 10 | 0.0001 to 10 | 0.0001 to 10 | 0.0001 to 10 |  |  |  |  |  |  |
| COc1cc(NC(=O)N2CCC(C(C)(C)C(O)c3cc(Cl)cc4cn[nH]c34)CC2)cc(OC)c1 (centres unmarked) [Compound P-0396, 4-(1-(5-chloro-1H-indazol-7-yl)-1-hydroxy-2-methylpropan-2-yl)-N-(3,5-dimethoxyphenyl) piperidine-1-carboxamide] | 0.0001 to 10 | 0.0001 to 10 | 0.0001 to 10 | 0.0001 to 10 |  |  |  |  |  |  |
| CS(=O)(=O)NC12CCC(C(O)c3cc(Cl)cc4cn[nH]c34)(CC1)CC2 (centres unmarked) [Compound P-0415, N-(4-((5-chloro-1H-indazol-7-yl)(hydroxy)methyl)bicyclo[2.2.2]octan-1-yl) methanesulfonamide] | 0.0001 to 10 | 0.0001 to 10 |  |  | > 10 | 0.0001 to 10 |  |  |  |  |
| CC(C)(C1CCN(S(C)(=O)=O)CC1)C(O)c1cc(Cl)cc2cn[nH]c12 (centres unmarked) [drawing 814] |  |  |  |  |  |  | 0.03 | 0.15 | 0.42 | 0.08 |
| CC(=O)N1CCC(C(C)(C)[C@H](O)c2cc(Cl)cc3cn[nH]c23)CC1 [Compound P-0542, (S)-1-(4-(1-(5-chloro-1H-indazol-7-yl)-1-hydroxy-2-methylpropan-2-yl)piperidin-1-yl)ethan-1-one] | 0.0001 to 10 | 0.0001 to 10 |  |  | 0.0001 to 10 | 0.0001 to 10 |  |  |  |  |
| OC(c1cc(Cl)cc2cn[nH]c12)C1(C(F)(F)F)CCCC1 (centres unmarked) [Compound P-0053, (5-chloro-1H-indazol-7-yl)(1-(trifluoromethyl)cyclopentyl)methanol] | 0.0001 to 10 | 0.0001 to 10 | 0.0001 to 10 | 0.0001 to 10 |  |  |  |  |  |  |
